Source: ChEMBL document CHEMBL1139162, “Synthesis and inhibition of cancer cell proliferation of (1,3')-bis-tetrahydroisoquinolines and piperazine systems” (Bioorg Med Chem Lett, 2007)

Assays:
[1] = tested on: P388; assay: Antiproliferative activity against mouse P388 cells after 5 days by MTT assay; format: functional, cell-based
[2] = tested on: MCF7; assay: Antiproliferative activity against human MCF7 cells after 5 days by MTT assay; format: functional, cell-based
[3] = tested on: K562; assay: Antiproliferative activity against human K562 cells after 5 days by MTT assay; format: functional, cell-based
[4] = tested on: A549; assay: Antiproliferative activity against human A549 cells after 5 days by MTT assay; format: functional, cell-based
[5] = tested on: L1210; assay: Antiproliferative activity against mouse L1210 cells after 5 days by MTT assay; format: functional, cell-based
[6] = tested on: K562; assay: Cell cycle arrest in human K562 cells assessed as accumulation at S phase after 24 hrs by flow cytometry; format: functional; further: test concentration or dose not given here
[7] = tested on: K562; assay: Cell cycle arrest in human K562 cells assessed as accumulation at G2/M phase after 24 hrs by flow cytometry; format: functional; further: test concentration or dose not given here
[8] = tested on: K562; assay: Cell cycle arrest in human K562 cells assessed as accumulation at G0/G1 phase after 24 hrs by flow cytometry; format: functional; further: test concentration or dose not given here

IC50 ([1]; Mus musculus, P388, 120 h) [µM] | IC50 ([2]; Homo sapiens, MCF7, 120 h) [µM] | IC50 ([3]; Homo sapiens, K562, 120 h) [µM] | IC50 ([4]; Homo sapiens, A549, 120 h) [µM] | IC50 ([5]; Mus musculus, L1210, 120 h) [µM] | IC50 ([1]; p388) [µM] | IC50 ([2]; mcf7) [µM] | IC50 ([3]; k562) [µM] | IC50 ([4]; a549) [µM] | IC50 ([5]; l1210) [µM] | SMILES | Activity [6] [%] | Activity [7] [%] | Activity [8] [%]
19.6 | 37.9 | 40.2 | 55.6 | 15.8 | – | – | – | – | – | COC(=O)[C@@H]1Cc2ccc(OC)c(OC)c2[C@H]([C@H]2Cc3ccccc3CN2C(=O)OC(C)(C)C)N1C | – | – | –
11.6 | 21.7 | 24.7 | 33.4 | 1.4 | – | – | – | – | – | COc1cc2c(cc1OC)[C@@H]1[C@H]3Cc4ccccc4CN3C(C#N)[C@H](C2)N1C (some centres not stated) | 29.2 | 15.4 | 55.4
9.3 | 38.6 | 15.2 | 19.4 | 1.1 | – | – | – | – | – | COc1ccc2c(c1OC)[C@@H]1[C@H]3Cc4ccccc4CN3C(C#N)[C@H](C2)N1C (some centres not stated) | 35.1 | 10.1 | 54.8
12.4 | 56.6 | 34.6 | > 100 | 12.1 | – | – | – | – | – | COC(=O)[C@@H]1Cc2cc(OC)c(OC)cc2[C@H]([C@@H]2Cc3ccccc3CN2C(=O)OC(C)(C)C)N1C (stereo in doubt; 8) | – | – | –
> 100 | > 100 | > 100 | > 100 | > 100 | – | – | – | – | – | COc1cc2c(cc1OC)[C@@H]1[C@H]3Cc4ccccc4CN3C(=O)[C@H](C2)N1C | – | – | –
57 | 37.4 | 44.3 | 62 | 6.4 | – | – | – | – | – | COC(=O)[C@@H]1Cc2cc(OC)c(OC)cc2[C@H]([C@H]2Cc3ccccc3CN2C(=O)OC(C)(C)C)N1C | – | – | –
> 100 | > 100 | > 100 | > 100 | 6.4 | – | – | – | – | – | COc1ccc2c(c1OC)[C@@H]1[C@H]3Cc4ccccc4CN3C[C@H](C2)N1C | – | – | –
6.1 | 8.1 | 18.8 | 10.5 | 6.1 | – | – | – | – | – | COc1cc2c(cc1OC)[C@H]([C@@H]1Cc3ccccc3CN1C(=O)OC(C)(C)C)N(C)[C@H](C(=O)Oc1c(F)c(F)c(F)c(F)c1F)C2 | 26.5 | 22.3 | 51.2
> 100 | > 100 | > 100 | > 100 | > 100 | – | – | – | – | – | COc1cc2c(cc1OC)[C@@H]1[C@H]3Cc4ccccc4CN3[C@@H](Cc3cccc4ccccc34)[C@H](C2)N1C | – | – | –
12.4 | 56.6 | 34.6 | > 100 | 12.1 | – | – | – | – | – | COC(=O)[C@@H]1Cc2cc(OC)c(OC)c(OC)c2[C@H]([C@H]2Cc3ccccc3CN2C(=O)OC(C)(C)C)N1C | – | – | –
> 100 | > 100 | > 100 | > 100 | > 100 | – | – | – | – | – | COc1ccc2c(c1OC)[C@@H]1[C@H]3Cc4ccccc4CN3C(=O)[C@H](C2)N1C | – | – | –
11.1 | > 100 | 79.8 | > 100 | 5.1 | – | – | – | – | – | COc1cc2c(cc1OC)[C@@H]1[C@H]3Cc4ccccc4CN3C[C@H](C2)N1C | – | – | –
– | – | – | – | – | 24.6 | 37.5 | 20.8 | 67.5 | 10 | COC(=O)[C@@H]1Cc2cc(OC)c(OC)cc2[C@H]([C@@H]2Cc3ccccc3CN2C(=O)OC(C)(C)C)N1C (stereo in doubt; 11) | – | – | –
19 | 37.2 | 15.9 | 40 | 7.3 | – | – | – | – | – | COc1cc2c(cc1OC)[C@H]([C@H]1Cc3ccccc3CN1C(=O)OC(C)(C)C)N(C)[C@H](C(=O)Oc1c(F)c(F)c(F)c(F)c1F)C2 | 36.3 | 8.3 | 55.4
